Assay [1] concerns the target T1, ACL (Homo sapiens (Human), UniProt P53396). Put plainly: ACLY-MDH Coupled Assay.
Target sequence in this assay (P53396 whole entry, species assumed): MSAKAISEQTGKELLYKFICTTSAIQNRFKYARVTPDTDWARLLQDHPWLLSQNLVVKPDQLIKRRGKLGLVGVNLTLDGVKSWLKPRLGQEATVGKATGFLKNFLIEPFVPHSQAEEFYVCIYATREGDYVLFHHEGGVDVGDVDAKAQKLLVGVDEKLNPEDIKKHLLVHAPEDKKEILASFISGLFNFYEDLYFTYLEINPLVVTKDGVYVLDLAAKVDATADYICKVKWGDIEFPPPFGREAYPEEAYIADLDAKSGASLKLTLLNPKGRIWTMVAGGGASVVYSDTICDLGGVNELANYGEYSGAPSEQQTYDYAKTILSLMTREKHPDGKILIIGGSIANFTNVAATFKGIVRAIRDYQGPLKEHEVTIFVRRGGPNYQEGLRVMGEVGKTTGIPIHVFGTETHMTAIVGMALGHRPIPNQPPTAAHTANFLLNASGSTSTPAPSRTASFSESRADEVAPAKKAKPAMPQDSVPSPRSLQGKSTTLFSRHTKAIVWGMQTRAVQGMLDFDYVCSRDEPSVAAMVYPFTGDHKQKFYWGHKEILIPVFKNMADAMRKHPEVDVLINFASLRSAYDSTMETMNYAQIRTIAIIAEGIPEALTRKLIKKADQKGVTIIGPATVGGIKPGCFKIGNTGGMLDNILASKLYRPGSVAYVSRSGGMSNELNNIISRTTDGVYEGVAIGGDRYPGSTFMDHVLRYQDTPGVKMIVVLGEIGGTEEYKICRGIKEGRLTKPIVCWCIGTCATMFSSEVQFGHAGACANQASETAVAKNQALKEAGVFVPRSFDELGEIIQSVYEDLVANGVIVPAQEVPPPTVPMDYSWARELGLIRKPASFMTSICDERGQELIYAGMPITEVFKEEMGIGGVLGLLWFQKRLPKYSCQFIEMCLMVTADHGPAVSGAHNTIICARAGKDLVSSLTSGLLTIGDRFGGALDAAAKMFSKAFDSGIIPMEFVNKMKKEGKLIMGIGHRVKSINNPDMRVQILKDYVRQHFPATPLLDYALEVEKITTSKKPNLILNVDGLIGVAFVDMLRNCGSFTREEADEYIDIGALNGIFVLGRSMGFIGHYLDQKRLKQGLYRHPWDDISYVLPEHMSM
Description: Compounds of the present invention were evaluated in an ACLY Coupled Assay.
The assay protocol for the Coupled Assay (below) was followed:
b) Add 1 μL cpds to 96 assay plate, Test cpd conc: 100/30/10 μM top dose, 3 folds dilution, 10+0+control (control: buffer without ACL+DMSO) points, 1000 rpm for 1 min, incubation at 25° C. for 60 min
Assay [2] has as its target T1, ACL. The assay can be described thus: ADP-Glo Assay. For orientation: In ADP-Glo the light output rises with the ADP produced.
Target sequence in this assay (P53396 other isoform, or with tags, fused parts or gaps isoform P53396-2): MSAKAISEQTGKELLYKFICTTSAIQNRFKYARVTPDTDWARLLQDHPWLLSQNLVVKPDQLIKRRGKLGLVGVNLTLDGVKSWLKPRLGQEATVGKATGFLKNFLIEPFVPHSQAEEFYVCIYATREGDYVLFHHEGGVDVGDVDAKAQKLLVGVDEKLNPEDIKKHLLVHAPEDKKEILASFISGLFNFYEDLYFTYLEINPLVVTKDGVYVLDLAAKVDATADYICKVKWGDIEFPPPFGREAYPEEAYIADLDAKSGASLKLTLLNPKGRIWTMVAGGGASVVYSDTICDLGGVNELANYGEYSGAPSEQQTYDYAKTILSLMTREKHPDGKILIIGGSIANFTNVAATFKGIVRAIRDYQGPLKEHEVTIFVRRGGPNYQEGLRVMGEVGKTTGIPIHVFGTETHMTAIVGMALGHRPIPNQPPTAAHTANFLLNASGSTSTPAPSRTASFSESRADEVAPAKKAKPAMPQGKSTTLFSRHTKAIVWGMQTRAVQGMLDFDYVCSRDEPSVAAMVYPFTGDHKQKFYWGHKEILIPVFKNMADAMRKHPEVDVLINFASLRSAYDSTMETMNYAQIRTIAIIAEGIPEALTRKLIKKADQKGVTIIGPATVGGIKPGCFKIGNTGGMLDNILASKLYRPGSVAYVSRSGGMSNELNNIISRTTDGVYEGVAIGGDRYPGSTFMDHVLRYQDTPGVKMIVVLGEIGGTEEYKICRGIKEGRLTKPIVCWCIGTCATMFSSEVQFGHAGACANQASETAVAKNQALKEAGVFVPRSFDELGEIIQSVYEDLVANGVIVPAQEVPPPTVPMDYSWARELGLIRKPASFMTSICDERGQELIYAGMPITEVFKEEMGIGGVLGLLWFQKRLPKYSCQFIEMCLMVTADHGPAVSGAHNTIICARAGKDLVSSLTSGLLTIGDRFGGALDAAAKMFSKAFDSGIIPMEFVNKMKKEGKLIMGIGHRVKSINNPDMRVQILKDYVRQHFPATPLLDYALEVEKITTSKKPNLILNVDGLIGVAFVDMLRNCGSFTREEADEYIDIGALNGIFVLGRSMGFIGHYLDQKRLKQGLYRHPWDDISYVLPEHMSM
The mark [3] stands for this setting: read-out: ACL-MDH Coupled Assay (IC50), 8 nM ACL, 60 μM CoA Na2, 85 μM Citrate, 250 μM ATP, 250 μM NADH.
Where [4] appears, read: read-out: ACL-ADP-Glo (IC50), 3 nM ACL, 15 μM ATP, 3 μM CoA, 300 μM Citrate.

As a reminder, the IC50 is the midpoint of a concentration-inhibition curve.

Structures are written as SMILES. Bounds are passed on as bounds.

Turning to `O=S(=O)(c1cc(Cl)cc(Cl)c1O)N(Cc1ccccc1)Cc1cccc(-c2ccccc2)c1` [I-67, N-([1,1′-biphenyl]-3-ylmethyl)-N-benzyl-3,5-dichloro-2-hydroxybenzenesulfonamide], the figures for the IC50 in assay [1] and in assay [2] were 500 to 30000 nM and 500 to 20000 nM, respectively.
Take `CCOC(=O)c1cc(Cl)c(O)c(S(=O)(=O)Nc2cc(-c3cc4ccccc4s3)c(F)cc2F)c1` [I-505, ethyl 3-(N-(5-(benzo[b]thiophen-2-yl)-2,4-difluorophenyl)sulfamoyl)-5-chloro-4-hydroxybenzoate]: the IC50 in assay [1] (setting [3]) and in assay [2] (setting [4]) was less than 50 nM each time.
Turning to `O=S(=O)(Nc1ccoc1)c1cc(Cl)cc(Cl)c1` [I-368, 3,5-dichloro-N-(furan-3-yl)benzenesulfonamide], the IC50 in assay [1] was greater than 30000 nM; in assay [2], 50 to 500 nM.
In the case of `O=C(O)c1ccc(-c2ccccc2)cc1NS(=O)(=O)Cc1ccc(C(F)(F)F)cc1` [I-299, 3-(((4-(trifluoromethyl)phenyl)methyl)sulfonamido)-[1,1′-biphenyl]-4-carboxylic acid], the IC50 in assay [1] fell in the range of 500 to 30000 nM; in assay [2], 500 to 20000 nM.
Taken in the same sequence, the figures for `O=C(Nc1cc(-c2cc3ccccc3s2)ccc1C(=O)O)c1cc(Cl)cc(Cl)c1` [I-515, 4-(benzo[b]thiophen-2-yl)-2-(3,5-dichlorobenzamido)benzoic Acid] were 500 to 30000 nM and 500 to 20000 nM.
For the compound `O=C(c1cc(Cl)c(O)c(S(=O)(=O)Nc2cc(-c3ccccc3)cc(F)c2F)c1)N1CCC1` [I-160, 5-(azetidine-1-carbonyl)-3-chloro-N-[4,5-difluoro-[1,1-biphenyl]-3-yl]-2-hydroxybenzene-1-sulfonamide], the IC50 in assay [1] (setting [3]) and in assay [2] (setting [4]) was less than 50 nM in each case.
For `C[C@]1(O)CCN(C(=O)c2cc(Cl)c(O)c(S(=O)(=O)Nc3cc(-c4ccccc4)c(F)cc3F)c2)C1` [I-149, (S)-3-chloro-N-(4,6-difluoro-[1,1′-biphenyl]-3-yl)-2-hydroxy-5-(3-hydroxy-3-methylpyrrolidine-1-carbonyl)benzenesulfonamide], the results for the IC50 in assay [1] and in assay [2] (setting [4]) were 50 to 500 nM and less than 50 nM, respectively.
Regarding `O=C(O)c1ccc(-c2ccccc2)cc1NS(=O)(=O)C1CCC1` [I-329], the values for the IC50 in assay [1] and in assay [2] were 500 to 30000 nM and 500 to 20000 nM, respectively.
As for `O=C(O)c1sc(-c2ccc(Cl)cc2)cc1NS(=O)(=O)c1cc(Cl)cc(Cl)c1` [I-322, 5-(4-chlorophenyl)-3-((3,5-dichlorophenyl)sulfonamido)thiophene-2-carboxylic acid], the IC50 in assay [1] fell in the range of 500 to 30000 nM; in assay [2], 500 to 20000 nM.
Regarding `O=C(c1cncs1)N(c1ccc(Cl)cc1)S(=O)(=O)c1cc(Br)cc(Cl)c1O` [I-511, N-((5-bromo-3-chloro-2-hydroxyphenyl)sulfonyl)-N-(4-chlorophenyl)thiazole-5-carboxamide], the 50% inhibitory concentration (IC50) in assay [1] is 500 to 30000 nM; in assay [2], 500 to 20000 nM.
As to `O=C(O)COc1c(Br)cc(C(=O)N2CCC2)cc1S(=O)(=O)Nc1cc(-c2ccccc2)ccc1F` [I-192, 2-(4-(azetidine-1-carbonyl)-2-bromo-6-(N-(4-fluoro-[1,1′-biphenyl]-3-yl)sulfamoyl)phenoxy)acetic Acid], the half-maximal inhibitory concentration (IC50) in assay [1] was 500 to 30000 nM; in assay [2], 500 to 20000 nM.
`NC1CN(C(=O)c2cc(Cl)c(O)c(S(=O)(=O)Nc3cc(-c4ccccc4)c(F)cc3F)c2)C1` [I-200, 5-(3-aminoazetidine-1-carbonyl)-3-chloro-N-[4,6-difluoro-[1,1-biphenyl]-3-yl]-2-hydroxybenzene-1-sulfonamide]: the results for the IC50 in assay [1] and in assay [2] (setting [4]) were 50 to 500 nM and less than 50 nM, respectively.
As to `CC(=O)N1CCc2cc(Br)c(S(=O)(=O)Nc3cc(-c4ccccc4)ccc3C(=O)O)cc21` [I-338], the values for the IC50 in assay [1] and in assay [2] were 500 to 30000 nM and 500 to 20000 nM, respectively.
For `CO[C@H]1CCN(C(=O)c2cc(Cl)c(O)c(S(=O)(=O)Nc3cc(-c4ccccc4)c(F)cc3F)c2)C1` [I-103, 3-chloro-N-(2,4-difluoro-5-phenylphenyl)-2-hydroxy-5-[[(3S)-3-methoxypyrrolidin-1-yl]carbonyl]benzene-1-sulfonamide], the IC50 in assay [1] (setting [3]) and in assay [2] (setting [4]) was less than 50 nM throughout.
Turning to `O=C(c1cc(Cl)c(O)c(S(=O)(=O)Nc2cc(-c3ccncc3)ccc2F)c1)N1CCC1` [I-202, 5-(azetidine-1-carbonyl)-3-chloro-N-[2-fluoro-5-(pyridin-4-yl)phenyl]-2-hydroxybenzene-1-sulfonamide], the IC50 lay in the range of 500 to 30000 nM in assay [1] and 50 to 500 nM in assay [2].
Take `CS(=O)(=O)c1cc(Cl)c(O)c(S(=O)(=O)Nc2cc(-c3ccccc3)c(F)cc2F)c1` [I-124, 3-chloro-N-[4,6-difluoro-[1,1-biphenyl]-3-yl]-2-hydroxy-5-methanesulfonylbenzene-1-sulfonamide]: the IC50 in assay [1] and in assay [2] was 50 to 500 nM each time.
Consider `O=C(c1cc(Cl)c(O)c(S(=O)(=O)Nc2cc3ccsc3cc2F)c1)N1CCC1` [I-221, 5-(azetidine-1-carbonyl)-3-chloro-N-(6-fluoro-1-benzothiophen-5-yl)-2-hydroxybenzene-1-sulfonamide], for which the IC50 in assay [1] lay in the range of 500 to 30000 nM; in assay [2] it was 500 to 20000 nM.
For the compound `COc1ccc(-c2ccccc2)cc1NS(=O)(=O)c1ccc(-c2nn[nH]n2)cc1` [I-407, N-(2-methoxy-5-phenylphenyl)-4-(2H-1,2,3,4-tetrazol-5-yl)benzene-1-sulfonamide], the IC50 was greater than 30000 nM in assay [1] and greater than 20000 nM in assay [2].
Consider `O=S(=O)(Nc1cc(-c2ccccc2)ccc1OC(F)(F)F)c1cc(Cl)cc(Cl)c1O` [I-509, 3,5-dichloro-2-hydroxy-N-(4-(trifluoromethoxy)-[1,1′-biphenyl]-3-yl)benzenesulfonamide], for which the IC50 in assay [1] and in assay [2] was 50 to 500 nM in each case.
Consider `CNC(=O)c1cc(Cl)c(O)c(S(=O)(=O)Nc2cc(-c3ccccc3)c(F)cc2F)c1` [I-92, 3-chloro-5-[(2,4-difluoro-5-phenylphenyl)sulfamoyl]-4-hydroxy-N-methylbenzamide], for which the IC50 in assay [1] and in assay [2] was 50 to 500 nM throughout.
For the compound `CCC(=O)Oc1c(Cl)cc(Cl)cc1S(=O)(=O)Nc1cc(-c2ccccc2)ccc1F` [I-50, 2,4-dichloro-6-(N-(4-fluoro-[1,1′-biphenyl]-3-yl)sulfamoyl)phenyl propionate], the IC50 in assay [1] lay within 500 to 30000 nM; in assay [2], 500 to 20000 nM.
As to `COc1ccc(-c2ccccc2)cc1NS(=O)(=O)c1cc(C(N)=O)cc(Cl)c1O` [I-55, 3-chloro-4-hydroxy-5-[(2-methoxy-5-phenylphenyl)sulfamoyl]benzamide], the IC50 in assay [1] is 500 to 30000 nM; in assay [2], 50 to 500 nM.
Consider `O=C(c1cc(Cl)c(O)c(S(=O)(=O)Nc2cc(-c3ccccc3)c(F)cc2F)c1)N1CCOCC1` [I-99, 3-chloro-N-(4,6-difluoro-[1,1′-biphenyl]-3-yl)-2-hydroxy-5-(morpholine-4-carbonyl)benzenesulfonamide], for which the IC50 in assay [1] is 500 to 30000 nM; in assay [2], 500 to 20000 nM.
With `COc1ccc(-c2ccccc2)cc1NS(=O)(=O)c1cc(C(=O)NCCN)cc(Cl)c1O` [I-64, N-(2-aminoethyl)-3-chloro-4-hydroxy-5-[(2-methoxy-5-phenylphenyl)sulfamoyl]benzamide], the IC50 lay within 500 to 30000 nM in assay [1] and 500 to 20000 nM in assay [2].
As to `O=C(O)c1ccc(-c2ccccc2)cc1NS(=O)(=O)Cc1cc(Cl)cc(Cl)c1` [I-305, 3-(((3,5-dichlorophenyl)methyl)sulfonamido)-[1,1′-biphenyl]-4-carboxylic acid], the IC50 in assay [1] lay in the range of 500 to 30000 nM; in assay [2] it was 500 to 20000 nM.
Turning to `Cc1c(S(=O)(=O)Nc2cc(-c3ccccc3)ccc2C(=O)O)c2ccccc2n1C` [I-335], the IC50 in assay [1] lay within 500 to 30000 nM; in assay [2], 500 to 20000 nM.
`O=C(c1cc(Cl)c(O)c(S(=O)(=O)Nc2cc(-c3ccccc3)c(F)cc2F)c1)N1CC[C@@H](F)C1` [I-119, (R)-3-chloro-N-(4,6-difluoro-[1,1′-biphenyl]-3-yl)-5-(3-fluoropyrrolidine-1-carbonyl)-2-hydroxybenzenesulfonamide]: the IC50 is 50 to 500 nM in assay [1] and less than 50 nM in assay [2] (setting [4]).
As for `COc1ccc(-c2ccccc2)cc1NS(=O)(=O)c1cc(C(=O)O)cc(Cl)c1O` [I-2, 3-chloro-4-hydroxy-5-(N-(4-methoxy-[1,1′-biphenyl]-3-yl)sulfamoyl)benzoic Acid], the IC50 in assay [1] was 500 to 30000 nM; in assay [2], 500 to 20000 nM.
As to `O=S(=O)(Nc1cc(Cl)cc(-c2nccs2)c1)c1cc(Cl)cc(Cl)c1O` [I-240, 3,5-dichloro-N-(3-chloro-5-(thiazol-2-yl)phenyl)-2-hydroxybenzenesulfonamide], the concentration for half-maximal inhibition (IC50) was in the range of 500 to 30000 nM in assay [1] and 500 to 20000 nM in assay [2].
As for `CC(C)(C)OC(=O)NC1CN(C(=O)c2cc(Cl)c(O)c(S(=O)(=O)Nc3cc(-c4ccccc4)c(F)cc3F)c2)C1` [I-201, tert-butyl N-[1-[3-chloro-5-([4,6-difluoro-[1,1-biphenyl]-3-yl]sulfamoyl)-4-hydroxybenzoyl]azetidin-3-yl]carbamate], the IC50 in assay [1] was 500 to 30000 nM; in assay [2] it was 500 to 20000 nM.
Turning to `O=C(O)c1ccc(-c2ccccc2)cc1NS(=O)(=O)CC1Cc2ccccc2C1` [I-328], the IC50 in assay [1] fell in the range of 500 to 30000 nM; in assay [2], 500 to 20000 nM.
Take `O=C(O)c1ccc(-c2cc3ccccc3s2)cc1NS(=O)(=O)c1cc(Cl)cc(Cl)c1` [I-293, 4-(benzo[b]thiophen-2-yl)-2-((3,5-dichlorophenyl)sulfonamido)benzoic acid]: the results for the IC50 in assay [1] and in assay [2] were 500 to 30000 nM and 500 to 20000 nM, respectively.
Turning to `O=C(c1cc(Cl)c(O)c(S(=O)(=O)Nc2cc(C3CC3)c(F)cc2F)c1)N1CC(F)C1` [I-194, 3-chloro-N-(5-cyclopropyl-2,4-difluorophenyl)-5-(3-fluoroazetidine-1-carbonyl)-2-hydroxybenzene-1-sulfonamide], the IC50 is 500 to 30000 nM in assay [1] and 50 to 500 nM in assay [2].
Regarding `O=C(O)c1cc(F)c(-c2ccccc2)cc1NCc1cc(Cl)cc(Cl)c1` [I-317, 5-((3,5-dichlorobenzyl)amino)-2-fluoro-[1,1′-biphenyl]-4-carboxylic Acid], the IC50 is 500 to 30000 nM in assay [1] and 500 to 20000 nM in assay [2].

These data come from patent publication US11555012B2 (Nimbus Artemis, Inc., priority 2018, dated 2023).
